In PMC8622842, “Absolute Structure Determination and Kv1.5 Ion Channel Inhibition Activities of New Debromoaplysiatoxin Analogues” (Marine Drugs, 2021):
“Also recorded” adds a separate entry of the source. Read-outs that look alike come from different tables or passages of the source.

Columns and labels:
human Kv1.5 channels = biological target: T1, human Kv1.5 channels (Homo sapiens, UniProt P22460); assay: Kv1.5 current inhibition, whole-cell electrophysiology in LTK cells stably expressing human Kv1.5; assay type: cell-based; settings: for Voltage dependence of Kv1.5 current inhibition: tested potentials -50 mV to 50 mV
T1 construct: expressed in transfected cells
Description: For culturing mouse L cells lacking thymidine kinase (LTK) cells stably expressing human Kv1.5 channels (LTK/Kv1.5), 10% fetal bovine serum (FBS), 10,000 U/ml penicillin G and 10 mg/ml streptomycin were added into Dulbecco’s Modified Eagle Media (DMEM). LTK/Kv1.5 cells were cultured in a 37 °C humidified incubator set to 5% CO2. The amount of 100 μg/ml Genetic (G418) was added into the culture media to select transgenic cells. When the cells grew to 75–85% confluence, they were passaged for subsequent electrophysiological records (Supplementary Materials 1.3.1.1).
LTK cells cultured for at least 24 h could be used for currents recording. For Kv1.5 potassium current recording, the recording micropipettes were pulled with a P97 microelectrode puller (Sutter, CA, USA) with a resistance of about 3 MΩ when filling with internal solution containing the following: KCl 140 mM, MgCl2 1 mM, EGTA 5 mM, HEPES 10 mM and MgATP 1 mM (pH was adjusted to 7.25 by KOH). The bath solution contained the following: NaCl 137 mM, KCl 5.4 mM, CaCl2 1.8 mM, MgCl2 1 mM, Glucose 10 mM and HEPES 10 mM (pH was adjusted to 7.4 by NaOH). Kv1.5 currents were recorded at room temperature (22–24 °C) by PulseMaster (Version 2.65, Heka, Lambrecht, Germany) via an EPC-10 USB amplifier (Heka, Lambrecht, Germany). In order to reduce recording errors, cells with seal resistance above 1 GΩ and series resistance that was fully compensated above 80% were used. Leak compensation was used to compensate the leak current and to subtract the capacitive artifacts (Supplementary Materials 1.3.1.2).
1.3.1. Ion Channel Experiment
For culturing mouse L cells lacking thymidine kinase (Ltk−) cells stably expressing human Kv1.5 channels (Ltk−/Kv1.5), 10% fetal bovine serum (FBS), 10,000 U/ml penicillin G and 10 mg/ml streptomycin were added into Dulbecco's Modified Eagle Media (DMEM). Ltk−/Kv1.5 cells were cultured in a 37 °C humidified incubator set to 5% CO2. 100 μg/ml Genetic (G418) was added into the culture media to select transgenic cells. When the cells grew to 75% - 85% confluent, they were passaged for subsequent electrophysiological records.μ1.3.1.2.
1.3.1.2. Electrophysiology
Ltk− cells cultured for at least 24 h could be used for currents recording. For Kv1.5 potassium currents recording, the recording micropipettes were pulled with a P97 microelectrode puller (Sutter, CA, USA) with a resistance about 3 MΩ when filling with internal solution containing: KCl 140 mM, MgCl2 1 mM, EGTA 5 mM, HEPES 10 mM, MgATP 1 mM (pH was adjusted to 7.25 by KOH). The bath solution contained: NaCl 137 mM, KCl 5.4 mM, CaCl2 1.8 mM, MgCl2 1 mM, Glucose 10 mM, HEPES 10 mM (pH was adjusted to 7.4 by NaOH). Kv1.5 currents were recorded at room temperature (22–24°C) by PulseMaster (Version 2.65, Heka, Lambrecht, Germany) via an EPC-10 USB amplifier (Heka, Lambrecht, Germany).
To reduce recording errors, cells with seal resistance above 1 GΩ and series resistance was fully compensated above 80% were used. Leak compensation was used to compensate the leak current and to subtract the capacitive artifacts
Cells with amplitudes above 1 nA, series resistance less than 10 MΩ and leak compensation below 200 pA were chosen for data analysis. Kv1.5 currents were evoked by a 300 ms depolarizing pulse from -50 mV to 50 mv in 20 mV increments from a holding potential of -70 mV. The current amplitude at the end of 300-ms pulse was measured. The IC50 and Hill coefficient (n) was obtained by fitting concentration dependence data to the equation of I (%) = 1/{1+(IC50/[D]) n} in which I (%) is the percent inhibition of current (I (%) = [1-Idrug/Icontrol] ×100) at test potential and [D] represents various drug concentrations . The measured error at the end of relative short 300 ms pulse was limited and the fitted IC 50 was acceptable. For steady-state activation curves were fitted with the Boltzmann function: G/Gmax =1/{1+exp[−(V-V1/2)/k]}, where V is a membrane potential and the Nernst K + equilibrium potential EK was calculated as−80 mV. G was […]

Artemia salina = assay: whole plant or invertebrate; assay type: in vivo; settings: for Effect on brine shrimp A. salina: at 30 µM
Description: Brine shrimp A. salina is an important model organism for ecosystems, and because of its high sensitivity and easy availability, it can be used in laboratory settings to study toxic effects and to provide safe results. A. salina or brine shrimp cysts were cultivated in 3.2% of saline water. After aeration with normal saline, cysts were placed at temperature for 24 h and then cultured. For toxicity screening, hatched larvae were collected and introduced in saline water. Add 0.9% brine and 30 larvae with good activity to each well to produce a 96-well test culture plate. New compounds of 0.1 µM, 1 µM, 10 µM and 30 µM and DAT were added to the experimental culture plate, respectively. Dimethyl sulfoxide (Aladdin, Shanghai, China) and dichloromethane (Aladdin, Shanghai, China) were added as blank control and positive control. The survival rate of A. salina was calculated after 24 h treatment at 25 °C.
Commercially available Artemia salina (A. salina) or brine shrimp cysts were purchased and cultivated in 3.2% of saline water. Before cultivation, the saline was aerated, and then cysts were kept at room temperature for 24 h. For toxicity screening, hatched larvae were collected and introduced in saline water. Add saline water and equivalent larvae in per well of 96 wells to make test culture plate. Aplysiatoxins with 0.1 μM, 1 μM, 10 μM, 30 μM was added to test culture plate, while DMSO and dichloromethane were added as blank control test and positive control separately. After 24 h in 25 °C, the percent of survival of A. salina was calculated.
Table S1.3.2.1. Effect of compounds 1-4 to Artemia salina (A. salina) . A. salina were treated with indicated concentration (0.1 µM, 1 µM, 10 µM, 30 µM) of dichloromethane (DCM), debromoaplysiatoxin (DAT), oscillatoxin J, oscillatoxin K, oscillatoxin L, oscillatoxin M, Methylenechloride, Control for 24 h. The percentage of A. salina with all different kinds of […]
Compounds Percentage of Survival of Artemia salina after 24 h (μM) […]
Figure S1.3.2.1. Effect of debromoaplysiatoxin to Artemia salina (A. salina). […]
(also on this page, place not known: compound s , , , , J K L M . USA) -1.5 -1.0 -0.5 0.0 0 20 40 60 80 100 LogCon.
(1 picture or pasted object on this page, not shown here)

phosphor PKCδ = system: phosphor PKCδ; set-up: method as in PMID 35521179; settings: HepG2, 10 µM; cited from earlier work
Kv1.2 channel = system: Kv1.2 channel; set-up: method as in PMID 18313714; settings: read-out: IC50 against Kv1.2 channel; cited from earlier work

T1 sequence (P22460 whole entry): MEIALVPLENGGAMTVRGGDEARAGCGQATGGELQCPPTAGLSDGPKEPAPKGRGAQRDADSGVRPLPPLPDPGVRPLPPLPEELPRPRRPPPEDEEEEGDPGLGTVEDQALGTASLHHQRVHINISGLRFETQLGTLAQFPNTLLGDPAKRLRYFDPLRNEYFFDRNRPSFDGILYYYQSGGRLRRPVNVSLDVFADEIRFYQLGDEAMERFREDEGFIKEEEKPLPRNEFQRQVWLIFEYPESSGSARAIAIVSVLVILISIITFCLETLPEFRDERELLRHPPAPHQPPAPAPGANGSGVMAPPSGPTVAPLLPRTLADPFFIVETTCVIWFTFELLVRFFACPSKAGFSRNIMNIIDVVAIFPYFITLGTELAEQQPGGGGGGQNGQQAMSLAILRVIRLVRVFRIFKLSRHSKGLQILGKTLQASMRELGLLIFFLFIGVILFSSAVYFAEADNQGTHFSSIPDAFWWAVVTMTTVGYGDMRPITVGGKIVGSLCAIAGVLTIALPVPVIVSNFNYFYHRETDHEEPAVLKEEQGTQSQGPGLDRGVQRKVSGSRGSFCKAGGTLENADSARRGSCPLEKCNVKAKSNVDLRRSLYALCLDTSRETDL

SMILES	IC50 (human Kv1.5 channels; current at end of 300 ms pulse at 50 mV, 0.3-10 µM, mean ± SEM of 3 to 5 measurements, read-out: IC50 of Kv1.5 current inhibition) [µM]	Voltage dependence of Kv1.5 current inhibition (human Kv1.5 channels)	Percentage of Survival of Artemia salina after 24 h (Artemia salina; 0.1 µM, 24 h) [%]	Percentage of Survival of Artemia salina after 24 h (Artemia salina; 1 µM, 24 h) [%]	Percentage of Survival of Artemia salina after 24 h (Artemia salina; 10 µM, 24 h) [%]	Percentage of Survival of Artemia salina after 24 h (Artemia salina; 30 µM, 24 h) [%]	Effect on brine shrimp A. salina (Artemia salina)	IC50 (human Kv1.5 channels) [µM]	Effect on Kv1.5 (human Kv1.5 channels; at 10 µM)	Expression of phosphor PKCδ (phosphor PKCδ)	Concentration at which survival of Artemia salina began to be affected (Artemia salina; 24 h) [µM]	IC50 (Artemia salina; Artemia salina, 0.05-0.5 µM, read-out: IC50 of brine shrimp toxicity (survival of A. salina)) [µM]	IC50 (Kv1.2 channel) [µM]
CO[C@@H](CC[C@H](C)[C@H]1O[C@@]23C[C@H](OC(=O)C[C@H]([C@@H](C)O)OC(=O)/C=C(\O2)C(C)=CC3(C)C)[C@@H]1C)c1cccc(O)c1 [Compound 1, oscillatoxin J]	2.61 ± 0.91	voltage dependently inhibited	96.62±0.37	95.87±0.7	95±1.52	93.61±5.11	no apparent effect						
CO[C@@H](CC[C@H](C)[C@H]1O[C@]23C[C@H](OC(=O)C[C@H]([C@@H](C)O)OC(=O)[C@H](O)C(=C(C)CC2(C)C)O3)[C@@H]1C)c1cccc(O)c1 [Compound 2, oscillatoxin K]		voltage dependently inhibited	96.63±0.05	96.05±0.07	95.23±0.19	89.97±7.12	no apparent effect	3.86 ± 1.03					
CO[C@@H](CC[C@H](C)[C@H]1O[C@@]23C[C@H](OC(=O)C[C@H]([C@@H](C)O)OC(=O)C[C@](O)(O2)[C@@](C)(O)CC3(C)C)[C@@H]1C)c1cccc(O)c1 [Compound 3, oscillatoxin L]			97.74±1.60	98.89±1.57	96.37±0.28	73.38±9.64	no apparent effect	> 10	minimum effects; also recorded: no apparent Kv1.5 inhibition activity				
COC(CCC(C)C1OC23CC(OC(=O)CC(C(C)O)OC(=O)CC(C)(O2)C(=O)CC3(C)C)C1C)c1cccc(O)c1 (stereo not shown) [Compound 4, oscillatoxin M]		voltage dependently inhibited	95.13±1.09	96.29±0.11	96.15±0.12	82.27±6.13	no apparent effect	3.79 ± 1.01					
CO[C@@H](CC[C@H](C)[C@H]1O[C@@]23C[C@H](OC(=O)C[C@H]([C@@H](C)O)OC(=O)C[C@](O)(O2)[C@H](C)CC3(C)C)[C@@H]1C)c1cccc(O)c1 [Compound 5, debromoaplysiatoxin]			87.19±0.74	2.96±2.1	0	0				strongly upregulating	0.1	0.34 ± 0.036	
C=CC/C=C\C=C/[C@H]1O[C@H]2C[C@H]3O[C@H]4CC[C@H]5O[C@H]6C[C@@]7(C)O[C@@]8(C)[C@@H](O)C[C@H](CCCO)O[C@@H]8C[C@@H]7O[C@@H]6C[C@@H]5O[C@]4(C)C[C@]3(C)O[C@@H]2C=C[C@]1(C)O [Gambierol]													0.0345 ± 0.0015
ClCCl [Methylenechloride, dichloromethane, reference compound]			0	0	0	0							
